Numbers after ± are expanded uncertainties.
Details: Crystal; DTA

Structure (SMILES): CCCCn1cc[n+](C)c1.[Cl-] [1-butyl-3-methylimidazolium chloride]
- Normal melting temperature: 60.30 ± 5 °C
